The values that follow come from patent publication US8530470B2, “Chromenone derivatives” (Astrazeneca AB, priority 2011, dated 2013).

Where two headings read alike, the source gives them in different places.

The term IC50 denotes the concentration at which inhibition is half-maximal.

Experiment [1] relates to phosphoinositide (PI) 3-kinase. In words: Comparison of activity of enantiomers (PI 3-kinase inhibitory activity). Format: biochemical. The note with it: (+) enantiomer of Example 1.03 compared with the other enantiomer. An excerpt:
The synthesis of optically active forms may be carried out by standard techniques of organic chemistry well known in the art, for example by synthesis from optically active starting materials or by resolution of a racemic form. Similarly, the above-mentioned activity may be evaluated using the standard laboratory techniques.
For the avoidance of doubt, the chiral centre in question is the carbon atom at the 2-position of the central pyrrolidine ring that is linked to the chromenone bicyclic ring.

Another experiment deals with PI3Kβ (Homo sapiens, UniProt P42338). In words: In vitro enzyme inhibition assay (Kinase Glo), PI3Kβ. The experiment is classed as biochemical. The method, then: (§1) (a) In Vitro Enzyme Inhibition Assay
Chain of PI3Kβ (P42338 whole entry): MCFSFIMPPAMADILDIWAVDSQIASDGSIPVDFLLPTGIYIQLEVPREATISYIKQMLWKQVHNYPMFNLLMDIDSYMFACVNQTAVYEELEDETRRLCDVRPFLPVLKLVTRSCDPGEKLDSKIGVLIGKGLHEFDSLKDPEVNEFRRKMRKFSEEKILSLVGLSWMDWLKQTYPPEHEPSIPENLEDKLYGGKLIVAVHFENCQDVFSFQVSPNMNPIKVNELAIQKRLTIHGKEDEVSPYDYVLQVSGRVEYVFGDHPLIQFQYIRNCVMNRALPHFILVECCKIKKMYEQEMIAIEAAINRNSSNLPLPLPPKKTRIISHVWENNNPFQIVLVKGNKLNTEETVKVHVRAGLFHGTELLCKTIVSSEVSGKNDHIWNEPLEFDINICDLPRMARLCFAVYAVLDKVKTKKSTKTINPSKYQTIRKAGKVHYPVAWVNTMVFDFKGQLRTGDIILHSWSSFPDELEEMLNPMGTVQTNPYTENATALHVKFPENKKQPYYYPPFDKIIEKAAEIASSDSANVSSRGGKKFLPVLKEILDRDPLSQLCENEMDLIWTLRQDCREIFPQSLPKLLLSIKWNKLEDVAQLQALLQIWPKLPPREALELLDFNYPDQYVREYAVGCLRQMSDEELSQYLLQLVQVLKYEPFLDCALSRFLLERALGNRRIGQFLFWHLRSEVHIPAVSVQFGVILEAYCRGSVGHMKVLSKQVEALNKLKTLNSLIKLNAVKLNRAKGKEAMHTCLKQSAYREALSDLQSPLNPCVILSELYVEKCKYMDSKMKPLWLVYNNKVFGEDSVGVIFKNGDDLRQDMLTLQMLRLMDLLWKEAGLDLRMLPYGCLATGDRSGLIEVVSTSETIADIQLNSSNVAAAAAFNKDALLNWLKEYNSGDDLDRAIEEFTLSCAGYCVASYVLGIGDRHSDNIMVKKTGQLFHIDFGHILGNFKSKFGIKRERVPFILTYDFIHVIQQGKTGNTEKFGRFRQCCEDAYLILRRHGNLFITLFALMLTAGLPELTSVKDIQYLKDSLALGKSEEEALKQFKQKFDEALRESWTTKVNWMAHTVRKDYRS
Chain of PI3Kβ (P27986 whole entry partner): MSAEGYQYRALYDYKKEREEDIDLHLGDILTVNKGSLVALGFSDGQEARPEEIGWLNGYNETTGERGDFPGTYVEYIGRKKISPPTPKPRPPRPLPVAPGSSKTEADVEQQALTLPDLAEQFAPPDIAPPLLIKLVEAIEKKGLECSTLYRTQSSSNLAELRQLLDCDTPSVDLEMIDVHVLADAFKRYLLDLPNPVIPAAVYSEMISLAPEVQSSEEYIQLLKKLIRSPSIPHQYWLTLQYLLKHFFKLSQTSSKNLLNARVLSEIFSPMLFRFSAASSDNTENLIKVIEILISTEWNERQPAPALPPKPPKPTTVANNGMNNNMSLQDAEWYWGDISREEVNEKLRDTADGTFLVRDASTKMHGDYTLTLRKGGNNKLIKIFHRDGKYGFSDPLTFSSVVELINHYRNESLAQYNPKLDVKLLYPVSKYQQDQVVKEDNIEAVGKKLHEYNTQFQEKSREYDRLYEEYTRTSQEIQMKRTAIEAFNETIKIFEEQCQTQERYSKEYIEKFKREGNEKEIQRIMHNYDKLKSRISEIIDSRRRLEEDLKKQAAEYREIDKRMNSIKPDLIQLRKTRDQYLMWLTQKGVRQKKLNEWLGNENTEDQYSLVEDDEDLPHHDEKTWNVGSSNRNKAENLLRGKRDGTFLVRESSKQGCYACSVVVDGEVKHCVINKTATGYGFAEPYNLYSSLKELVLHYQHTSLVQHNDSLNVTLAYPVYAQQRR
(§2) The inhibition of PI3Kβ, PI3Kα, PI3Kγ and PI3Kδ was evaluated in a Kinase Glo based enzyme activity assay using human recombinant enzymes. The assay measures depletion of ATP after incubation with enzyme, PIP2 and ATP plus compound. ATP at the end of the reaction is detected by addition of Kinase Glo reagent, in this the Ultra Glo™ luciferase (Promega) uses the ATP as a substrate to catalyze the mono-oxygenation of luciferin and the generation of light. A direct relationship exists between the luminescence measured with the Kinase-Glo Plus Reagent and the amount of ATP remaining in a completed kinase reaction and luminescence is inversely related to kinase activity. Twelve different compound concentrations were tested and raw data from the inhibition of PI3Kβ, PI3Kα, PI3Kγ and PI3Kδ was plotted versus inhibitor concentration.
(§3) Compounds in 100% DMSO were added to assay plates by acoustic dispensing. PI3β was added in a Tris buffer (50 mM Tris pH7.4, 0.05% CHAPS, 2.1 mM DTT, and 10 mM MgCl2) and allowed to preincubate with compound for 20 min prior to addition of substrate solution containing PIP2 and ATP. The enzyme reaction was stopped after 80 min by the addition of Kinase Glo detection solution. […] The final concentration of DMSO, ATP and PIP2 in the assay were, 1%, 8 μM, and 80 μM respectively.
(§4) IC50 values were calculated using a log curve fitting to a non-linear regression package, fitting raw data to inhibitor concentration.

The target of a further experiment is PI3Kδ (Homo sapiens, UniProt O00329). In words: In vitro enzyme inhibition assay (Kinase Glo), PI3Kδ. Format: biochemical. The note with it: Test (a). The protocol: as §1, §2, §3, §4
Chain of PI3Kδ (O00329 whole entry): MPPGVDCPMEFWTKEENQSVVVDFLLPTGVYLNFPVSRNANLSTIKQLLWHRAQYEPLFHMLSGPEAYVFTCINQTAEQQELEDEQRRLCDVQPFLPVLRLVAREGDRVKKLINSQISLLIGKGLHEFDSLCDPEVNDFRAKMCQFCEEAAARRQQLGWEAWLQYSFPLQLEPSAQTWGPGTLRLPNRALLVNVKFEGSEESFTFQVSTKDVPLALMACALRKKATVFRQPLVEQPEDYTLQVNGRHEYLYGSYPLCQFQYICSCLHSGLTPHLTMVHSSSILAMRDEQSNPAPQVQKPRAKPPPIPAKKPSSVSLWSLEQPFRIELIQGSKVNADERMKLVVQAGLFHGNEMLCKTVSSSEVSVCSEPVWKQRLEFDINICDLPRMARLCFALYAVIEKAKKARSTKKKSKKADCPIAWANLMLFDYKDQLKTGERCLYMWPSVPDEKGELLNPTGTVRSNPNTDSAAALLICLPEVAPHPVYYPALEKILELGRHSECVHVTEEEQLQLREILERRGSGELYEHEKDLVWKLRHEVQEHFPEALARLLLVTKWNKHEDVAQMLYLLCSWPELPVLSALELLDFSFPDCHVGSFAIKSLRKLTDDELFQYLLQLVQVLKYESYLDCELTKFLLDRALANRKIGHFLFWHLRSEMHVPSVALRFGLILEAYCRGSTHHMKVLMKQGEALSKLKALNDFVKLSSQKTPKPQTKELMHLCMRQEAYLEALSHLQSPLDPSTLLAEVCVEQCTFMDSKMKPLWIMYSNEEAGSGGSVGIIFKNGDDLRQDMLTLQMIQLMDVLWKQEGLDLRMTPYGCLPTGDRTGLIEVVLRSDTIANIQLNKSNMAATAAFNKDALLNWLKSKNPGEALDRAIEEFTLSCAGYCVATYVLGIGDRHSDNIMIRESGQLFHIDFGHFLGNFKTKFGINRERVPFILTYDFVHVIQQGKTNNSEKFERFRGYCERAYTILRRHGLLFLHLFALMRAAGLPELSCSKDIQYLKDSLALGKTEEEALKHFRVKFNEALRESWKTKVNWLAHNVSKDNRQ
Chain of PI3Kδ (P27986 whole entry partner): as the sequence (P27986 whole entry partner) above
Experiment [2] deals with phospho AKT (ser473) in MDA-MB-468 cells. In words: Detection of phospho AKT (ser473) in MDA-MB-468 cells. The note with it: Homo sapiens, Test (b), 2 hours incubation, approximate value, read-out: IC50 versus cellular phospho AKT (ser473) in MDA-MB-468 cells. Format: cell-based. The method, then: (b) Protocol for Detection of Phospho AKT (ser473) in MDA-MB-468 Cells
MDA-MB-468 cells (human breast adenocarcinoma ATCC HTB 132) are seeded into Greiner 384 well black flat-bottomed plates by automated cell culture robot (Selec T). Cells can also be maintained manually and seeded into plates using multidrop or Wellmate. Cells seeded at 1500 cell/well in 40 μl of DMEN containing 10% FCS and 1% glutamine. Cell plates are incubated for 18 hours in a 37° C. incubator.
Compounds are dosed onto cells using an Echo acoustic dispenser, which dispenses nl quantities of compound or DMSO. Compounds are dosed in a 12 point concentration range from 30 μM top dose, 28 compounds are dosed on one plate. There are 17 DMSO only positive control wells per plate, and 16 negative control well which have been dosed with a concentration of reference compound that will knockout the pAKT signal.
Plates are incubated at 37° C. for 2 hours, cells are the fixed by the addition of 10 μl of a 3.7% Formaldehyde solution in a fume cupboard using a Wellmate.
After 30 min to allow for fixation, the fixative and media are removed and the plates washed with Proclin PBS/A using Tecan PW384 plate washer in a fume cupboard. Wells are blocked and permeabilised with the addition of 40 μl of PBS containing 0.5% Tween20 and 1% marvel using a Wellmate and incubated for 60 min at room temperature.
Permeabilisation and blocking buffer removed using Tecan PW384 plate washer, then 20 μl primary antibody solution added using a Wellmate. The primary antibody solution is a 1:500 dilution of Rabbit anti-phospho AKT Ser 473 (Cell signalling technologies catalogue number #3787) in PBS/T containing 1% marvel (dried milk powder) and incubated overnight at 4° C.
Plates are washed using a Tecan PW384 plate washer three times with Phosphate Buffered Saline+0.05% (v/v) Polysorbate20 and Proclin300 (Supelco). 20 μl of secondary antibody solution is then added to each well using a Wellmate and incubated for 1 hour at Room Temp. The secondary antibody solution is a 1:1000 dilution of Alexa Fluor 488 anti-Rabbit (Molecular Probes cat no A11008) diluted in Phosphate Buffered Saline+0.05% (v/v) Polysorbate20 containing 1% marvel. Plates are washed three times as before then […] added to each well and plates sealed with black plate sealer.
The plates are read on an Acumen reader as soon as possible. Using this system IC50 values can be generated and quality of plates determined by control wells. Reference compounds are run each time to monitor assay performance.

Experiment [3] deals with phospho AKT (ser473) in Jeko cells. In words: Detection of phospho AKT (ser473) in Jeko cells. The note with it: Homo sapiens; Test (e); anti-IgM stimulated; approximate value; read-out: IC50 versus cellular phospho AKT (ser473) in Jeko cells. Format: cell-based. The protocol:
(e) Protocol for Detection of Phospho AKT (ser473) in Jeko Cells
Compounds at ×10 final concentration in 10 μl of 1% (v/v) DMSO are added to the wells of a Greiner V-bottomed 96 well plate. Compounds are dosed in a 10-point concentration range from 1 μM top dose, 8 compounds are dosed on one plate. There are 8 DMSO positive control wells per plate which have been dosed with vehicle and anti-IgM, and 8 negative control wells which have been dosed with vehicle and assay buffer. Final vehicle concentration is 0.1% DMSO. A reference PI3Kδ selective compound is included in each run. Jeko B cells (human mantle cell lymphoma, ATCC CRL-3006) are seeded into the Greiner 96 well V-bottomed plates containing compounds. Cells are seeded at 100,000 cell/well in 70 μl of RPMI containing 1% glutamine.
Cell plates are incubated for 1 hour in a 37° C. incubator. After this compound pre-incubation time, anti-IgM (F(ab′)2 fragment goat anti-human IgM, Stratech 109-006-129) is added to the plates at ×5 final concentration in 20 μl of assay buffer (RPMI containing 1% glutamine). Final anti-IgM concentration is 0.06 μg/ml or an equivalent EC90 dose. Plates are incubated at 37° C. for 10 min, subsequently plates are immediately placed on ice and centrifuged at […] for 4 min. On ice, supernatants are carefully removed with a manual pipette and 40 μl lysis buffer added. […]

The mark [4] stands for this setting: Test (a), approximate value, read-out: IC50 versus PI3Kβ.
Where [5] appears, read: approximate value, read-out: IC50 versus PI3Kδ.
Setting [6] is: human recombinant enzyme, Table A, read-out: PI3Kδ inhibition, IC50.
Setting [7] is: Test (a), human recombinant enzyme, ATP 8 μM, PIP2 80 μM, Table A, read-out: PI3Kβ inhibition, IC50.

Regarding `O=C(c1cc([C@@H]2CCCN2c2cc(F)cc(F)c2)c2oc(N3CCOCC3)cc(=O)c2c1)N1CCOCC1` [Example 1.03a, 8-[(2S)-1-(3,5-difluorophenyl)pyrrolidin-2-yl]-6-(morpholine-4-carbonyl)-2-morpholino-4H-chromen-4-one], the “activity relative to the other enantiomer” value in experiment [1] was “weaker activity”. Moreover, the IC50 was approximately 198 nM at PI3Kβ (setting [4]), approximately 282 nM at PI3Kδ (setting [5]) and approximately 27 nM in experiment [2].

As to `CN(C)C(=O)c1cc(C2CCCN2c2cccc(F)c2)c2oc(N3CCOCC3)cc(=O)c2c1` (stereo not drawn) [Example 2.00, 8-(1-(3-fluorophenyl)pyrrolidin-2-yl)-N,N-dimethyl-2-morpholino-4-oxo-4H-chromene-6-carboxamide], the IC50 on PI3Kβ (setting [4]) was approximately 9 nM; on PI3Kβ (read-out: PI3Kβ inhibition, IC50), 9 nM; on PI3Kδ (setting [5]), approximately 12 nM; at PI3Kδ (setting [6]), 12 nM; in experiment [2], approximately 2 nM.

Turning to `O=C(c1cc([C@H]2CCCN2c2cccc(F)c2)c2oc(N3CCOCC3)cc(=O)c2c1)N1CCC1` [Example 1.08, 6-(azetidine-1-carbonyl)-8-[(2R)-(1-(3-fluorophenyl)pyrrolidin-2-yl)]-2-morpholino-4H-chromen-4-one], the IC50 at PI3Kβ (setting [4]) is approximately 6 nM; at PI3Kβ (setting [7]) it was 6 nM; at PI3Kδ (setting [5]) it was approximately 6 nM; on PI3Kδ (setting [6]), 6 nM; in experiment [2] it was approximately 2 nM.

For `COc1cccc(N2CCC[C@@H]2c2cc(C(=O)N3CCOCC3)cc3c(=O)cc(N4CCOCC4)oc23)c1` [Example 1.11, 8-[(2R)-(1-(3-methoxyphenyl)pyrrolidin-2-yl)]-6-(morpholine-4-carbonyl)-2-morpholino-4H-chromen-4-one], the IC50 on PI3Kβ (setting [4]) is approximately 9 nM; on PI3Kβ (setting [7]), 9 nM; on PI3Kδ (setting [5]), approximately 15 nM; on PI3Kδ (setting [6]) it was 15 nM; in experiment [2], approximately 8 nM.

Consider `O=C(c1cc(C2CCCN2c2cc(F)cc(F)c2)c2oc(N3CCOCC3)cc(=O)c2c1)N1CCOCC1` (racemic) [Example 1.03, 8-(1-(3,5-difluorophenyl)pyrrolidin-2-yl)-6-(morpholine-4-carbonyl)-2-morpholino-4H-chromen-4-one], for which the IC50 at PI3Kβ (setting [4]) was approximately 12 nM; at PI3Kβ (setting [7]), 12 nM; at PI3Kδ (setting [5]) it was approximately 22 nM; on PI3Kδ (setting [6]), 22 nM; in experiment [2], approximately 2 nM.

As for `O=C(c1cc([C@H]2CCCN2c2cc(F)cc(F)c2)c2oc(N3CCOCC3)cc(=O)c2c1)N1CCOCC1` [Example 1.03b, 8-[(2R)-1-(3,5-difluorophenyl)pyrrolidin-2-yl]-6-(morpholine-4-carbonyl)-2-morpholino-chromen-4-one], the 50% inhibitory concentration (IC50) on PI3Kβ (setting [4]) is approximately 7 nM; at PI3Kβ (setting [7]), 7 nM; on PI3Kδ (setting [5]), approximately 9 nM; at PI3Kδ (setting [6]), 9 nM; in experiment [3] it was approximately 7 nM; in experiment [2] it was approximately 1 nM.
